Results taken from patent publication US7704995B2 (Exelixis, Inc., priority 2003, dated 2010).

The molecules below were run against T1, Chk1 (Homo sapiens, UniProt O14757) (assay: Chk1 kinase assay: incorporation of γ-33P ATP into immobilized myelin basic protein). Conditions: read-out: Chk1 IC50.
T1 construct: purchased Upstate Biotechnology
T1 sequence (O14757 1-476): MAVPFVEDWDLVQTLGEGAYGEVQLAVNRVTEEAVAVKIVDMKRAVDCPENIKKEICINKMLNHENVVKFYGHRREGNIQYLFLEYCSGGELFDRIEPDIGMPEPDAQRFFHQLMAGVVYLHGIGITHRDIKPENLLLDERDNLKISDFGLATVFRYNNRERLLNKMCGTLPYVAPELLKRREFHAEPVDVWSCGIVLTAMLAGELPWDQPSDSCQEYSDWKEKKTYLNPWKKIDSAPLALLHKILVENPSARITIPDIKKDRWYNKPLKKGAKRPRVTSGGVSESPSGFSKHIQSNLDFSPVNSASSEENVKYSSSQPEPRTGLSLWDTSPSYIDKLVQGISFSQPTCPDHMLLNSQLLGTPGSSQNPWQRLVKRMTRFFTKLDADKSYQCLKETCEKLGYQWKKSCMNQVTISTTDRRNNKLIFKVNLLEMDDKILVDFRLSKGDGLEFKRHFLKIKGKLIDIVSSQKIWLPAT
Assay type: biochemical
Experimental: Chk1 and Chk2 assays were performed by measuring incorporation of γ-^33P ATP into immobilized myelin basic protein (MBP). High binding white 384 well plates (Greiner) were coated with MBP (Sigma #M-1891) by incubation of 60 ul/well of 20 μg/ml MBP in Tris-buffered saline (TBS; 50 mM Tris pH 8.0, 138 mM NaCl, 2.7 mM KCl) for 24 hours at 4° C. Plates were washed 3× with 100 μl TBS. Kinase reactions were carried out in a total volume of 34 μl in kinase buffer (5 mM Hepes pH 7.6, 15 mM NaCl, 0.01% bovine gamma globulin (Sigma #I-5506), 10 mM MgCl2, 1 mM DTT, 0.02% TritonX-100). Compound dilutions were performed in DMSO and added to assay wells to a final DMSO concentration of 1%. Each data point was measured in duplicate, and at least two duplicate assays were performed for each individual compound determination. Chk1 and Chk2 enzymes (Upstate Biotechnology) were added to final concentrations of 10 nM (Chk1) or 20 nM (Chk2). A mixture of unlabeled ATP and γ-^33P ATP was added to start the reaction (2×10^6 cpm of γ-^33P ATP per well (3000 Ci/mmole) and either 10 μM or 30 μM unlabeled ATP (for Chk1 and Chk2 assays respectively). The reaction was carried out for 1 hour at room temperature with shaking. Plates were washed 7× with TBS, followed by the addition of 50 μl/well scintillation fluid (Wallac). Plates were read using a Wallac Trilux counter. This is only one format of such assays, various other formats are possible, as known to those skilled in the art.
The above assay procedure can be used to determine the IC50 for inhibition and/or the inhibition constant Ki. The IC50 is defined as the concentration of compound required to reduce the enzyme activity by 50% under the conditions of the assay. […] The Ki for a compound may be determined from the IC50 based on three assumptions. First, only one compound molecule binds to the enzyme and there is no cooperativity. […] Third, the enzymatic rate of the enzyme-inhibitor complex is zero. The rate (i.e., compound concentration) data are fitted to the equation: […]

**Q.** Which IC50 does the source give for `Nc1ncc(-c2ccccc2)nc1C(=O)N[C@H]1CCc2ccccc21` [Example 5, 3-amino-N-[(1S)-2,3-dihydro-1H-inden-1-yl]-6-phenylpyrazine-2-carboxamide] here?
**A.** ≥ 10 µM

**Q.** Which IC50 does the source give for `Nc1ncc(-c2ccccc2)nc1C(=O)NC1CCCCC1` [Example 14, 3-amino-N-cyclohexyl-6-phenylpyrazine-2-carboxamide] here?
**A.** ≥ 10 µM

**Q.** With `COc1ccccc1-c1cnc(N)c(C(N)=O)n1` [Example 17, 3-amino-6-[2-(methyloxy)phenyl]pyrazine-2-carboxamide] as the molecule, how does the IC50 read?
**A.** ≥ 10 µM

**Q.** Which IC50 does the source give for `NC(=O)c1nc(-c2ccc(F)cc2F)cnc1N` [Example 18, 3-amino-6-(2,4-difluorophenyl)pyrazine-2-carboxamide] here?
**A.** ≥ 10 µM

**Q.** `NC(=O)c1nc(-c2cccc(F)c2)cnc1N` [Example 19, 3-amino-6-(3-fluorophenyl)pyrazine-2-carboxamide] was tested. Which IC50 did it give?
**A.** ≥ 10 µM

**Q.** For `NC(=O)c1nc(-c2ccc3ccccc3c2)cnc1N` [Example 27, 3-amino-6-naphthalen-2-ylpyrazine-2-carboxamide], which IC50 is on record?
**A.** ≥ 10 µM

**Q.** How did the IC50 turn out when `CNC(=O)c1cc(-c2cccc(CO)c2)cnc1N` [Example 35] was run?
**A.** 0.05 to 1 µM

**Q.** How did the IC50 turn out when `NC(=O)c1nc(-c2ccccc2)cnc1NCc1ccccc1` [Example 39, 6-phenyl-3-[(phenylmethyl)amino]pyrazine-2-carboxamide] was run?
**A.** ≥ 10 µM

**Q.** `CCCNc1ncc(-c2ccccc2)nc1C(N)=O` [Example 40, 6-phenyl-3-(propylamino)pyrazine-2-carboxamide] was tested. Which IC50 did it give?
**A.** ≥ 10 µM

**Q.** How did the IC50 turn out when `CNC(=O)c1nc(-c2cccc(N)c2)cnc1N` [Example 51, 3-amino-6-(3-aminophenyl)-N-methylpyrazine-2-carboxamide] was run?
**A.** 0.05 to 1 µM

**Q.** Which IC50 does the source give for `CNC(=O)c1nc(-c2cccc(CO)c2)cnc1N` [Example 57, 3-amino-6-[3-(hydroxymethyl)phenyl]-N-methylpyrazine-2-carboxamide] here?
**A.** 0.05 to 1 µM

**Q.** With `CNC(=O)c1nc(-c2ccc(CO)cc2)cnc1N` [Example 58, 3-amino-6-[4-(hydroxymethyl)phenyl]-N-methylpyrazine-2-carboxamide] as the molecule, how does the IC50 read?
**A.** 1 to 10 µM

**Q.** `C/N=C(\C)c1cccc(-c2cnc(N)c(C(=O)NC)n2)c1` [Example 59, 3-amino-N-methyl-6-{3-[(1E)-N-methylethanimidoyl]phenyl}pyrazine-2-carboxamide] was tested. Which IC50 did it give?
**A.** 1 to 10 µM

**Q.** For `CNC(=O)c1nc(-c2cccc(OC)c2)cnc1N` [Example 60, 3-amino-N-methyl-6-[3-(methyloxy)phenyl]pyrazine-2-carboxamide], which IC50 is on record?
**A.** 1 to 10 µM

**Q.** Which IC50 does the source give for `CNC(=O)c1nc(-c2ccc(NC(C)=O)cc2)cnc1N` [Example 63, 6-[4-(acetylamino)phenyl]-3-amino-N-methylpyrazine-2-carboxamide] here?
**A.** 1 to 10 µM

**Q.** With `CNC(=O)c1nc(-c2noc(C3CCCC3)n2)cnc1N` [Example 67, 3-amino-6-(5-cyclopentyl-1,2,4-oxadiazol-3-yl)-N-methylpyrazine-2-carboxamide] as the molecule, how does the IC50 read?
**A.** ≥ 10 µM

**Q.** For `CNC(=O)c1nc(-c2noc(-c3ccccc3)n2)cnc1N` [Example 69, 3-amino-N-methyl-6-(5-phenyl-1,2,4-oxadiazol-3-yl)pyrazine-2-carboxamide], which IC50 is on record?
**A.** ≥ 10 µM

**Q.** `CNC(=O)c1nc(-c2noc(Cc3ccccc3)n2)cnc1N` [Example 70, 3-amino-N-methyl-6-[5-(phenylmethyl)-1,2,4-oxadiazol-3-yl]pyrazine-2-carboxamide] was tested. Which IC50 did it give?
**A.** ≥ 10 µM

**Q.** Which IC50 does the source give for `CNC(=O)c1nc(-c2noc(CCc3ccccc3)n2)cnc1N` [Example 72, 3-amino-N-methyl-6-[5-(2-phenylethyl)-1,2,4-oxadiazol-3-yl]pyrazine-2-carboxamide] here?
**A.** ≥ 10 µM

**Q.** For `CNC(=O)c1nc(-c2noc(C(C)(C)C)n2)cnc1N` [Example 74, 3-amino-6-[5-(1,1-dimethylethyl)-1,2,4-oxadiazol-3-yl]-N-methylpyrazine-2-carboxamide], which IC50 is on record?
**A.** ≥ 10 µM

**Q.** How did the IC50 turn out when `CNC(=O)c1nc(-c2noc(-c3ccco3)n2)cnc1N` [Example 75, 3-amino-6-(5-furan-2-yl-1,2,4-oxadiazol-3-yl)-N-methylpyrazine-2-carboxamide] was run?
**A.** ≥ 10 µM

**Q.** How did the IC50 turn out when `CNC(=O)c1nc(-c2ccc(N(C)C)cc2)cnc1N` [Example 76, 3-amino-6-[4-(dimethylamino)phenyl]-N-methylpyrazine-2-carboxamide] was run?
**A.** 1 to 10 µM

**Q.** Which IC50 does the source give for `CNC(=O)c1nc(-c2ccc(NS(C)(=O)=O)cc2)cnc1N` [Example 77, 3-amino-N-methyl-6-{4-[(methylsulfonyl)amino]phenyl}pyrazine-2-carboxamide] here?
**A.** 1 to 10 µM

**Q.** For `CNC(=O)c1nc(-c2cc(C)cc(C)c2)cnc1N` [Example 78, 3-amino-6-(3,5-dimethylphenyl)-N-methylpyrazine-2-carboxamide], which IC50 is on record?
**A.** 1 to 10 µM

**Q.** With `CNC(=O)c1nc(-c2ccc(C(C)=O)cc2)cnc1N` [Example 79, 6-(4-acetylphenyl)-3-amino-N-methylpyrazine-2-carboxamide] as the molecule, how does the IC50 read?
**A.** 1 to 10 µM

**Q.** For `CNC(=O)c1nc(-c2ccc(OC)c(OC)c2)cnc1N` [Example 80, 3-amino-6-[3,4-bis(methyloxy)phenyl]-N-methylpyrazine-2-carboxamide], which IC50 is on record?
**A.** 1 to 10 µM

**Q.** How did the IC50 turn out when `CNC(=O)c1nc(-c2cccc(NC(=O)c3ccccc3)c2)cnc1N` [Example 81, 3-amino-N-methyl-6-{3-[(phenylcarbonyl)amino]phenyl}pyrazine-2-carboxamide] was run?
**A.** 0.05 to 1 µM

**Q.** How did the IC50 turn out when `CNC(=O)c1nc(-c2cccc(NS(C)(=O)=O)c2)cnc1N` [Example 82, 3-amino-N-methyl-6-{3-[(methylsulfonyl)amino]phenyl}pyrazine-2-carboxamide] was run?
**A.** 1 to 10 µM

**Q.** `CNC(=O)c1nc(-c2cccc(-c3nnn[nH]3)c2)cnc1N` [Example 83, 3-amino-N-methyl-6-[3-(1H-tetrazol-5-yl)phenyl]pyrazine-2-carboxamide] was tested. Which IC50 did it give?
**A.** 1 to 10 µM

**Q.** `CNC(=O)c1nc(-c2cccc(C(=O)NCc3ccccc3)c2)cnc1N` [Example 84, 3-amino-N-methyl-6-(3-{[(phenylmethyl)amino]carbonyl}phenyl)pyrazine-2-carboxamide] was tested. Which IC50 did it give?
**A.** 0.05 to 1 µM

**Q.** Which IC50 does the source give for `CNC(=O)c1nc(-c2cccc(C(N)=O)c2)cnc1N` [Example 85, 3-amino-6-[3-(aminocarbonyl)phenyl]-N-methylpyrazine-2-carboxamide] here?
**A.** 1 to 10 µM

**Q.** Which IC50 does the source give for `CNC(=O)c1nc(-c2cccc(C(=O)N(C)C)c2)cnc1N` [Example 86, 3-amino-6-{3-[(dimethylamino)carbonyl]phenyl}-N-methylpyrazine-2-carboxamide] here?
**A.** 1 to 10 µM

**Q.** For `CNC(=O)c1nc(-c2ccc(S(C)(=O)=O)cc2)cnc1N` [Example 87, 3-amino-N-methyl-6-[4-(methylsulfonyl)phenyl]pyrazine-2-carboxamide], which IC50 is on record?
**A.** 1 to 10 µM

**Q.** How did the IC50 turn out when `CCNC(=O)c1nc(-c2cccc(N)c2)cnc1N` [Example 88, 3-amino-6-(3-aminophenyl)-N-ethylpyrazine-2-carboxamide] was run?
**A.** 1 to 10 µM

**Q.** Which IC50 does the source give for `CNC(=O)c1nc(-c2cccc(NC(=O)Nc3ccc(F)cc3)c2)cnc1N` [Example 89, 3-amino-6-[3-({[(4-fluorophenyl)amino]carbonyl}amino)phenyl]-N-methylpyrazine-2-carboxamide] here?
**A.** 0.05 to 1 µM

**Q.** How did the IC50 turn out when `CNC(=O)c1nc(-c2cccc(NC(=O)Nc3ccc(OC)cc3)c2)cnc1N` [Example 90, 3-amino-N-methyl-6-{3-[({[4-(methyloxy)phenyl]amino}carbonyl)amino]phenyl}pyrazine-2-carboxamide] was run?
**A.** 0.05 to 1 µM

**Q.** Which IC50 does the source give for `CNC(=O)c1nc(-c2cccc(NC(=O)Nc3cccc(-c4cnc(N)c(C(=O)NC)n4)c3)c2)cnc1N` [Example 91, 6,6′-[(oxomethanediyl)bis(iminobenzene-3,1-diyl)]bis(3-amino-N-methylpyrazine-2-carboxamide)] here?
**A.** < 0.05 µM

**Q.** For `CNC(=O)c1nc(-c2cccc(C(=O)O)c2)cnc1N` [Example 92, 3-{5-amino-6-[(methylamino)carbonyl]pyrazin-2-yl}benzoic acid], which IC50 is on record?
**A.** ≥ 10 µM

**Q.** With `CNC(=O)c1nc(-c2cccc(C(=O)N3CCN(C)CC3)c2)cnc1N` [Example 93, 3-amino-N-methyl-6-{3-[(4-methylpiperazin-1-yl)carbonyl]phenyl}pyrazine-2-carboxamide] as the molecule, how does the IC50 read?
**A.** 1 to 10 µM
